Laboratory results published in EP4813403A1, “USE OF GLP-1R/GIPR DOUBLE-TARGET AGONIST IN PREPARING ANIMAL DRUG” (Hangzhou Zhongmeihuadong Pharmaceutical Co., Ltd., priority 2023, dated 2025).

Key:
human GIP Receptor = molecular target: T1, human GIP Receptor (Homo sapiens, UniProt P48546); assay: In vitro binding activity to human GIP receptor ([125I]GIP displacement, crude cell membranes); settings: ratio of the Ki value of the endogenous ligand to the Ki value of the test compound; larger ratio = stronger binding
T1 construct: expressed in transfected cells
T1 sequence (P48546 22-466): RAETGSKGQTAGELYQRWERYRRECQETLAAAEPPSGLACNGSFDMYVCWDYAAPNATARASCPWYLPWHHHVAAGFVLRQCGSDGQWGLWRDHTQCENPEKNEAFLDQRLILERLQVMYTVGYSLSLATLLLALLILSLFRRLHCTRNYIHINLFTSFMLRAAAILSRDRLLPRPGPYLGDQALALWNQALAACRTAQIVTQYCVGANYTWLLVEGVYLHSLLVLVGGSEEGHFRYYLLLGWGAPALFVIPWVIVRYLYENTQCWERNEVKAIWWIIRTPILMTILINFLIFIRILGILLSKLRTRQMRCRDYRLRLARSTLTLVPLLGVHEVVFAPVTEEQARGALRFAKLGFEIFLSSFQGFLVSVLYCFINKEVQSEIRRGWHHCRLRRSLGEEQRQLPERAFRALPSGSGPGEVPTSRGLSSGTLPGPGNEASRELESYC
Protocol: 89 µL of membrane dissolved in binding buffer (50 mM Hepes, pH 7.4, 5 mM MgCl2 , 5 mM EDTA, 0.005% TWEEN, 0.005% HSA) was transferred to a 96-well test plate (5 µg/well). The compound was serially diluted in DMSO, and then, 1 µL of the diluted compound or 100% DMSO was added to the test plate containing the membrane solution. 10 µL of [^125I] […] The test plate was left at room temperature for 90 minutes. The membrane complexes were harvested into a GF/B plate pre-coated with 0.5% PEI by using a Cell Harvester, and washed for 3 times with 500 µL of pre-cooled elution buffer (50 mM Hepes, pH 7.4, 500 mM NaCl) at 4°C. After drying at 37°C for 2 hours, 50 µL of scintillation fluid was added to each well. The plate was read with a MicroBeta2 scintillation counter after sealing and settling for at least 1 hour so as to determine the membrane bound radioligand level.
hGIP and the compound of the present invention were dissolved in DMSO and stored at -80°C. 98 µL of membrane dissolved in binding buffer (50 mM HEPES pH 7.4, 5 mM MgCl2, 1 mM CaCl2, 0.1% BSA, 0.005% Tween-20) was transferred to a 96-well test plate (15 µg/well). The compound was serially diluted in DMSO, and then, 2 µL of the diluted compounds or 100% DMSO was added to the test plate containing the membrane solution. […] The test plate was left at room temperature for 90 minutes. The membrane complexes were harvested into a GF/B plate pre-coated with 0.5% PEI by using a Cell Harvester, and washed for 3 times with 500 µL of pre-cooled elution buffer (50 mM Tris-HCl pH 7.4, 125 mM NaCl) at 4°C. After drying at 37°C for 2 hours, 50 µL of scintillation fluid was added to each well. The plate was read with a MicroBeta2 scintillation counter after sealing and settling for at least 1 hour so as to determine the membrane bound radioligand level.
The IC50 concentration was converted to Ki (Ki was the inhibition constant) using the Cheng-Prusoff equation. Table 1. Receptor Binding Affinity, Ki Ratio

[1] = Repeated administration on male rats for 2 weeks (toxicity, toxicokinetics); type: in vivo, SD male rats
Protocol: 77 SD male rats (SPF grade) were selected and randomly divided into 10 groups based on body weight. Group 1 was the vehicle control group, including 5 animals. […] Group 5 to Group 7 were the groups administrated with the test substance 1; and Group 8 to Group 10 were the groups administrated with the test substance 2, each group including 8 animals, wherein 5 animals for primary test, and 3 animals for toxicokinetics test, and the administration dose was 1, 3 and 10 mg/kg respectively. Each of the above groups was continuously administered twice a week for 2 weeks (administrating at Day 1, Day 5, Day 8, Day 12 and Day 15).
During the experiment, the cage condition monitoring, detailed clinical observations, determination of the food consumption, determination of body weight, measurement of the blood biochemical and hematology indicator, investigation of the gross anatomy, weighing of the organ, studying on toxicokinetic were performed on all the groups of the animals.
Original data during each time period was tabulated. The average values and standard deviations and/or group change were calculated for each assay endpoint based on the group and sex. For each endpoint, the administrated group will be compared with the control group in the following aspect. A logarithmic conversion was performed to the endpoint data as desired prior to the start of the specific analyses.

[2] = Pharmacokinetics following single administration in SD rats; settings: male, Sprague-Dawley, rat, in vivo, sc
Protocol: The compound was administrated to male SD rats (230-268 g, n=3) at a dose of 50.0 nmol/kg (s.c.) or 25.0 nmol/kg (i.v.). […] 30.0 μL of thawed plasma sample was taken. 150 μL of acetonitrile solution (containing 5 ng·mL^-1 Verapamil , 50 ng·mL^-1 Glibenclamide, 200 ng·mL^-1 Tolbutamide and 200 ng·mL^-1 Diclofenac) were added to precipitate protein. The mixture was vortexed for 5 minutes, and centrifuged at 3700 rpm for 8 minutes. 70.0 μL of the supernatant was taken, into which 70.0 μL of 0.5% aqueous formic acid solution was added. The mixture was vortexed for 5 minutes. 15 μL of the mixture solution was sampled and injected into the LC-MS/MS to determine the drug concentration in plasma. 20.0 μL of thawed plasma sample was taken. 60 μL of acetonitrile solution (containing 5 ng·mL^-1 Verapamil, 50 ng·mL^-1 Glibenclamide, 200 ng·mL^-1 Tolbutamide and 200 ng·mL^-1 Diclofenac) were added to precipitate protein. […] The mixture was vortexed for 10 minutes. 10.0 μL of the mixture solution was sampled and injected into the LC-MS/MS to determine the drug concentration in plasma. 30.0 μL of thawed plasma sample was taken. 150 μL of acetonitrile solution (containing 5 ng·mL^-1 Verapamil, 50 ng·mL^-1 Glibenclamide, 200 ng·mL^-1 Tolbutamide and 200 ng·mL^-1 Diclofenac) were added to precipitate protein. The mixture was vortexed for 5 minutes, and centrifuged at 3700 rpm for 8 minutes. 70.0 μL of the supernatant was taken, into which 70.0 μL of 0.5% aqueous formic acid solution was added. The mixture was vortexed for 5 minutes. 10.0 μL of the mixture solution was sampled and injected into the LC-MS/MS to determine the drug concentration in plasma. […] Table 5 Pharmacokinetic Parameters after Subcutaneous Injection of Different Polypeptide Compounds to Rats

| Structure (SMILES) | GIPR Ki ratio (human GIP Receptor) | MTD ([1]; MTD for 2 weeks, rats) | dose at which decrease of the body weight was observed after the first administration ([1]; SD male rats) [mg/kg] | Gross Anatomy ([1]; SD male rats, 1, 3, 10 mg/kg twice a week for 2 weeks) | accumulation (toxicokinetic) ([1]; SD male rats, administered twice a week for 2 weeks) | MTD at 336 h ([1]; Sprague-Dawley, rat, in vivo, SD male rats, administered twice a week for 2 weeks) [mg/kg] | Safety Window (based on dosage) ([1]; rat 2-week MTD versus efficacy dose) | safety window (based on exposure), times of that of Tirzepatide ([1]; rat, in vivo) | Tmax [2] [h] | half-life [2] [h] |
| --- | --- | --- | --- | --- | --- | --- | --- | --- | --- | --- |
| CC[C@H](C)[C@H](NC(=O)C(C)(C)NC(=O)[C@H](Cc1ccc(O)cc1)NC(=O)[C@H](CC(=O)O)NC(=O)[C@H](CO)NC(=O)[C@@H](NC(=O)C(C)(Cc1ccccc1)NC(=O)[C@@H](NC(=O)CNC(=O)[C@H](CCC(=O)O)NC(=O)C(C)(C)NC(=O)[C@@H](N)Cc1ccc(O)cc1)[C@@H](C)O)[C@@H](C)O)C(=O)NC(C)(C)C(=O)N[C@@H](CC(C)C)C(=O)N[C@@H](CC(=O)O)C(=O)N[C@@H](CCCCN)C(=O)N[C@@H](CCC(N)=O)C(=O)N[C@@H](C)C(=O)N[C@@H](CCC(N)=O)C(=O)N[C@@H](C)C(=O)N[C@@H](CCC(=O)O)C(=O)N[C@@H](Cc1ccccc1)C(=O)N[C@H](C(=O)N[C@@H](CCCCNC(=O)COCCOCCNC(=O)COCCOCCNC(=O)CC[C@H](NC(=O)CCCCCCCCCCCCCCCCCCCCC(=O)O)C(=O)O)C(=O)N[C@@H](Cc1c[nH]c2ccccc12)C(=O)N[C@@H](CC(C)C)C(=O)N[C@@H](CC(C)C)C(=O)N[C@@H](CCCCN)C(=O)NCC(=O)NCC(=O)N1CCC[C@H]1C(=O)N[C@@H](CO)C(=O)N[C@@H](CO)C(=O)NCC(=O)N[C@@H](C)C(=O)N1CCC[C@H]1C(=O)N1CCC[C@H]1C(=O)N1CCC[C@H]1C(=O)N[C@@H](CO)C(=O)N[C@@H](CCCCN)C(N)=O)C(C)C (stereo partly shown) [Compound P014] | 0.08 | 1980 nmol/kg (MTD for 2 weeks) | ≥ 1 | no abnormalities were found | no substantial accumulation | ≥ 10 | 1319 | more than 4 times | 24 | 14.8 ± 0.503 |
| CC[C@H](C)[C@H](NC(=O)C(C)(C)NC(=O)[C@H](Cc1ccc(O)cc1)NC(=O)[C@H](CC(=O)O)NC(=O)[C@H](CO)NC(=O)[C@@H](NC(=O)C(C)(Cc1ccccc1)NC(=O)[C@@H](NC(=O)CNC(=O)[C@H](CCC(=O)O)NC(=O)C(C)(C)NC(=O)[C@@H](N)Cc1ccc(O)cc1)[C@@H](C)O)[C@@H](C)O)C(=O)NC(C)(C)C(=O)N[C@@H](CC(C)C)C(=O)N[C@@H](CC(=O)O)C(=O)N[C@@H](CCCCN)C(=O)N[C@@H](CCC(N)=O)C(=O)N[C@@H](C)C(=O)N[C@@H](CCC(N)=O)C(=O)N[C@@H](C)C(=O)N[C@@H](CCC(=O)O)C(=O)N[C@@H](Cc1ccccc1)C(=O)N[C@H](C(=O)N[C@@H](CCCCN)C(=O)N[C@@H](Cc1c[nH]c2ccccc12)C(=O)N[C@@H](CC(C)C)C(=O)N[C@@H](CC(C)C)C(=O)N[C@@H](CCCCNC(=O)COCCOCCNC(=O)COCCOCCNC(=O)CC[C@H](NC(=O)CCCCCCCCCCCCCCCCCCCCC(=O)O)C(=O)O)C(=O)NCC(=O)NCC(=O)N1CCC[C@H]1C(=O)N[C@@H](CO)C(=O)N[C@@H](CO)C(=O)NCC(=O)N[C@@H](C)C(=O)N1CCC[C@H]1C(=O)N1CCC[C@H]1C(=O)N1CCC[C@H]1C(=O)N[C@@H](CO)C(=O)N[C@@H](CCCCN)C(N)=O)C(C)C (stereo partly shown) [Compound P017] | 0.04 | – | – | – | – | – | – | – | 24 | 18.7 ± 2.69 |
| CC[C@H](C)[C@H](NC(=O)C(C)(C)NC(=O)[C@H](Cc1ccc(O)cc1)NC(=O)[C@H](CC(=O)O)NC(=O)[C@H](CO)NC(=O)[C@@H](NC(=O)C(C)(Cc1ccccc1)NC(=O)[C@@H](NC(=O)CNC(=O)[C@H](CCC(=O)O)NC(=O)C(C)(C)NC(=O)[C@@H](N)Cc1ccc(O)cc1)[C@@H](C)O)[C@@H](C)O)C(=O)NC(C)(C)C(=O)N[C@@H](CC(C)C)C(=O)N[C@@H](CC(=O)O)C(=O)N[C@@H](CCCCN)C(=O)N[C@@H](CCC(N)=O)C(=O)N[C@@H](C)C(=O)N[C@@H](CCC(N)=O)C(=O)N[C@@H](C)C(=O)N[C@@H](CCC(=O)O)C(=O)N[C@@H](Cc1ccccc1)C(=O)N[C@H](C(=O)N[C@@H](CCCCN)C(=O)N[C@@H](Cc1c[nH]c2ccccc12)C(=O)N[C@@H](CC(C)C)C(=O)N[C@@H](CC(C)C)C(=O)N[C@@H](CCCCNC(=O)COCCOCCNC(=O)COCCOCCNC(=O)COCCOCCNC(=O)CC[C@H](NC(=O)CCCCCCCCCCCCCCCCCCCCC(=O)O)C(=O)O)C(=O)NCC(=O)NCC(=O)N1CCC[C@H]1C(=O)N[C@@H](CO)C(=O)N[C@@H](CO)C(=O)NCC(=O)N[C@@H](C)C(=O)N1CCC[C@H]1C(=O)N1CCC[C@H]1C(=O)N1CCC[C@H]1C(=O)N[C@@H](CO)C(=O)N[C@@H](CCCCN)C(N)=O)C(C)C (stereo partly shown) [Compound P020] | 0.05 | – | – | – | – | – | – | – | 24 | 17.9 ± 0.57 |
